Measured values taken from patent publication US7964636B2, “Synthesis and use of novel inhibitors and inactivators of protein arginine deiminases” (University of South Carolina, priority 2005, dated 2011).
Where two headings read alike, the source gives them in different places.

Key:
PAD4 [1] = molecular target: T1, PAD4 (Homo sapiens, UniProt Q9UM07); conditions: cited from earlier work
PAD4 [2] = molecular target: T1, PAD4; assay: IC50 assays (Example 2); type: biochemical; conditions: for IC50: 10 mM BAEE; for inhibition at the highest concentration tested: 500 μM
Procedure: BAEE was then added to a final concentration of 10 mM to initiate the reaction. Reactions were then quenched after a further 15 min by flash freezing. The amount of Cit produced in the reaction was quantified using our assay for Cit production.

PAD4 [3] = molecular target: T1, PAD4; assay: Time course assays / inactivation kinetics (Example 2); type: biochemical; conditions: 2 mM BAEE
PAD4 [4] = molecular target: T1, PAD4; assay: Time course inhibition assays (Example 1); conditions: 10 mM BAEE, 10 mM CaCl2
Procedure: Time course experiments were performed in assay buffers containing 10 mM BAEE, 100 mM HEPES (pH 7.6), 50 mM NaCl, 500 μM TCEP and 10 mM CaCl2 in the presence of various amounts of inhibitors. The assay buffers were pre-incubated at 37° C. for 10 minutes. […] At different time points, 60 μl of the reactions was withdrawn and quenched by flash freezing in liquid nitrogen. Color development and absorbance measurement at 540 nm of the samples were done as described in IC50 assays. […] [P]=vi[1−exp(−kobst)]/kobs (Eq. 2) where vi is the initial velocity, kobs is the pseudo-first-order rate constant, and [P] refers to the concentration of citrulline produced during the reaction process.

PAD4 [5] = molecular target: T1, PAD4; assay: H3-amidine inhibition assays; type: biochemical; conditions: BAEE substrate; 0, 5, 10 mM H3-amidine; read-out: Kis (linear competitive inhibition)
Procedure: Initial rates were determined in the absence and presence of various amounts of H3-amidine (0, 5, 10 mM), using BAEE as the substrate. […] After incubation at 37° C. for 15 min, the reactions were quenched and the amount of Cit produced quantified. The initial rates derived from these experiments were fit by non-linear least fit squares to equations representing linear competitive inhibition (Equation 4) and linear noncompetitive inhibition (Equation 5), using the using the GraFit™ version 5.0.11 software package. v=Vm[S]/(Km(1+[I]/Kis)+[S]) (Eq. 4) v=Vm[S]I(Km(1+[I]/Kis)+[S](1+[I]/Kii)) (Eq. 5)
Kii represents Ki intercept and Kis represents Ki slope. Comparisons of the standard errors derived from fits of the data to Equations 4 and 5 are most consistent with H3-amidine being a competitive inhibitor.

PAD4 [6] = molecular target: T1, PAD4; assay: Inhibition assays with compound 1 (mode of inhibition, BAEE substrate); type: biochemical; conditions: 0, 5, 10 mM compound 1, read-out: Kis (linear competitive inhibition)
PAD4 [7] = molecular target: T1, PAD4; assay: IC50 assays of compounds 1, 2 and 3 (Example 1); conditions: pre-incubation with PAD4 and Ca2+ (10 mM) for 10 min; BAEE 1 mM final; 20 min
Procedure: PAD4 used in this work was GST-cleaved full-length PAD4 that was purified. A recombinant human PAD4 Escherichia coli expression system that was obtained from the Yamada group was transformed into E. coli Rosetta cells (EMD Biosciences) for the expression of fall-length PAD4 with an 8-residue N-terminal linker that is fused in frame to a PreScission protease cleavable GST tag.
The aforementioned reaction mixtures were pre-incubated with PAD4 (0.5 μM) at 37° C. for 10 minutes prior to the addition of BAEE (1 mM final concentration) to initiate the reaction. After 20 minutes the reactions were quenched by flash freezing in liquid nitrogen. […] The absorbance at 540 μm was then measured and compared to a Cit standard curve to determine the concentration of Cit produced during the course of the reactions.

PAD4 [8] = conditions: known PAD inhibitor; cited from earlier work
[9] = preincubation with PAD4 in 10 mM calcium for 15 min, read-out: IC50

T1 sequence (Q9UM07 whole entry): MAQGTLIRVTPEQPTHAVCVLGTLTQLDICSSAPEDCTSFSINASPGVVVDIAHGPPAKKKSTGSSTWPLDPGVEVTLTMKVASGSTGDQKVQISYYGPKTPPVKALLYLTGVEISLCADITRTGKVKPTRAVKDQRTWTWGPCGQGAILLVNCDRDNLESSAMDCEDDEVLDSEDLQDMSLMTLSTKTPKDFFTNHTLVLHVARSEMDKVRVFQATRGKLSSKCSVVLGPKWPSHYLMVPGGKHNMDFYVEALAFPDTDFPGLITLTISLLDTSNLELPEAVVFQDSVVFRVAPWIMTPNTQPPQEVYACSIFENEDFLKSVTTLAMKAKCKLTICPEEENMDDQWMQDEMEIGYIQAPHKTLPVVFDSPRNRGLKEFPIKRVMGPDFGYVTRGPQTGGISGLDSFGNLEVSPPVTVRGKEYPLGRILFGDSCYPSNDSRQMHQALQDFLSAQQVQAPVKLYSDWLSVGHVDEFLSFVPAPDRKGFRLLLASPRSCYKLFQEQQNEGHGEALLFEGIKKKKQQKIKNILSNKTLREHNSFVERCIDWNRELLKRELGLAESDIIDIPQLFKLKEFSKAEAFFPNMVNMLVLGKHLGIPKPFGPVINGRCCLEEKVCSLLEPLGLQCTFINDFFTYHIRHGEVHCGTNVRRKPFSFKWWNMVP

SMILES: N=C(N)CCl [2-chloroacetamidine]
- Ki (PAD4 [1]): 20000 µM
- kinact/KI (PAD4 [1]; reported by the Fast group): 0.583 M⁻¹ s⁻¹

SMILES: N=C(CCl)NCC[C@H](NC(=O)c1ccccc1)C(N)=O [Cl2-amidine, N-α-benzoyl-N^4-(2-chloro-1-iminoethyl)-L-Dab amide]
- IC50 (PAD4 [2]; [9]): 585 ± 65 µM

SMILES: NC(=O)[C@H](CCCNC(=O)CCl)NC(=O)c1ccccc1 [Cl3-acetamide, N-α-benzoyl-N^5-(2-chloroacetyl)-L-Orn amide]
- inhibition at the highest concentration tested (PAD4 [2]): no inhibition
- IC50 (PAD4 [2]; [9]): > 500 µM

SMILES: N=C(CCl)NCCCC[C@H](NC(=O)c1ccccc1)C(N)=O [Cl4-amidine, N-α-benzoyl-N^6-(2-chloro-1-iminoethyl)-L-Lys amide]
- IC50 (PAD4 [2]; [9]): 640 ± 10 µM

SMILES: N=C(CF)NCC[C@H](NC(=O)c1ccccc1)C(N)=O [F2-amidine, N-α-benzoyl-N^4-(2-fluoro-1-iminoethyl)-L-Dab amide]
- observed activity (PAD4 [2]; at 1000 μM): 93 % of control
- IC50 (PAD4 [2]; [9]): > 1000 µM
- time course of product formation (PAD4 [3]): linear with respect to time

SMILES: NC(=O)[C@H](CCCNC(=O)CF)NC(=O)c1ccccc1 [F3-acetamide, N-α-benzoyl-N^5-(2-fluoroacetyl)-L-Orn amide]
- inhibition at the highest concentration tested (PAD4 [2]): no inhibition
- IC50 (PAD4 [2]; IC50, preincubation with PAD4 in 10 mM calcium for 15 min): > 500 µM

SMILES: N=C(CF)NCCC[C@H](NC(=O)c1ccccc1)C(N)=O [F3-amidine, N-α-benzoyl-N^5-(2-fluoro-1-iminoethyl)-L-ornithine amide]
- time dependence of inhibition (progress curves) (PAD4 [4]): time dependent inhibition properties

SMILES: N=C(CF)NCCCC[C@H](NC(=O)c1ccccc1)C(N)=O [F4-amidine, N-α-benzoyl-N^6-(2-fluoro-1-iminoethyl)-L-Lys amide]
- IC50 (PAD4 [2]; [9]): 655 ± 100 µM

SMILES: CC(=N)NCC[C@H](NC(=O)c1ccccc1)C(N)=O [H2-amidine, N-α-benzoyl-N^4-(1-iminoethyl)-L-Dab amide]
- IC50 (PAD4 [2]; [9]): > 1000 µM
- time course of product formation (PAD4 [3]): linear with respect to time

SMILES: CC(=N)NCCC[C@H](NC(=O)c1ccccc1)C(N)=O [H3-amidine, N-α-benzoyl-N^5-(1-iminoethyl)-L-Orn amide]
- Ki (PAD4 [5]): 3200 ± 900 µM
- IC50 (PAD4 [2]; [9]): > 1000 µM
- time course of product formation (PAD4 [3]): linear with respect to time

SMILES: CC(=N)NCCCC[C@H](NC(=O)c1ccccc1)C(N)=O [H4-amidine, N-α-benzoyl-N^6-(1-iminoethyl)-L-Lys amide]
- IC50 (PAD4 [2]; [9]): > 1000 µM
- time course of product formation (PAD4 [3]): linear with respect to time

SMILES: CC(=N)NCCC[C@H](NC(=O)c1ccccc1)C(=O)O [H-Amidine, N-α-benzoyl-N^5-(1-iminoethyl)-L-ornithine]
- Ki (PAD4 [6]): 1700 ± 200 µM
- time dependence of inhibition (progress curves) (PAD4 [4]): does not display time dependent inhibitory properties
- IC50 (PAD4 [7]): 4300 ± 700 µM

SMILES: CC(=O)O[C@H]1C(=O)[C@@]2(C)[C@H]([C@H](OC(=O)c3ccccc3)[C@]3(O)C[C@H](OC(=O)[C@H](O)[C@@H](NC(=O)c4ccccc4)c4ccccc4)C(C)=C1C3(C)C)[C@]1(OC(C)=O)CO[C@@H]1C[C@@H]2O [taxol]
- IC50 (PAD4 [8]): ~5000 µM
